Measured values reported in ChEMBL document CHEMBL1201862, “PubChem BioAssay data set” (2004).
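96-well plates; 48 h exposure; 5 concentrations. Endpoints by linear interpolation between flanking doses. Not reached: highest tested concentration assigned. Here, GI50 denotes the concentration required for 50% inhibition of growth.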 Calls of active or inactive are those of the source. Cut-off read from the data, not from the text of the source: active = GI50 up to about 1.1 µM and inactive = higher.

Key:
Assay in all cases: inhibition of tumour cell growth, NCI panel, 48 h
SF-539 = system: SF-539
786-0 = system: 786-0
Malme-3M = system: Malme-3M
A549 = system: A549
HT-29 = system: HT-29
BT-549 = system: BT-549
MDA-MB-231 = system: MDA-MB-231
NCI-H460 = system: NCI-H460
A498 = system: A498
NCI-H522 = system: NCI-H522
U-251 = system: U-251
Hs-578T = system: Hs-578T
MDA-N = system: MDA-N
HOP-92 = system: HOP-92
TK-10 = system: TK-10
SK-MEL-5 = system: SK-MEL-5
NCI/ADR-RES = system: NCI/ADR-RES
M14 = system: M14
EKVX = system: EKVX

Compound: CC1C(c2ccccc2)OP(=O)(OC(C#N)c2ccccc2)N1C (configuration not stated)
- GI50 (SF-539): > 100 µM (inactive)
- GI50 (786-0): > 100 µM (inactive)
- GI50 (Malme-3M): 89.3 µM (inactive)
- GI50 (A549): > 100 µM (inactive)
- GI50 (HT-29): > 100 µM (inactive)
- GI50 (BT-549): > 100 µM (inactive)
- GI50 (MDA-MB-231): > 100 µM (inactive)
- GI50 (NCI-H460): > 100 µM (inactive)
- GI50 (A498): > 100 µM (inactive)
- GI50 (NCI-H522): > 100 µM (inactive)
- GI50 (U-251): 67.9 µM (inactive)
- GI50 (Hs-578T): > 100 µM (inactive)
- GI50 (MDA-N): > 100 µM (inactive)
- GI50 (HOP-92): 89.9 µM (inactive)
- GI50 (TK-10): > 100 µM (inactive)
- GI50 (SK-MEL-5): > 100 µM (inactive)
- GI50 (NCI/ADR-RES): > 100 µM (inactive)
- GI50 (M14): 97.7 µM (inactive)
- GI50 (EKVX): > 100 µM (inactive)

Compound: CCN(CC)CCCNc1ccc([N+](=O)[O-])c2nc3ccccc3c(N)c12
- GI50 (SF-539): 0.495 µM (active)
- GI50 (786-0): 0.445 µM (active)
- GI50 (Malme-3M): 2.48 µM (inactive)
- GI50 (A549): 0.537 µM (active)
- GI50 (HT-29): 0.437 µM (active)
- GI50 (BT-549): 1.4 µM (inactive)
- GI50 (MDA-MB-231): 0.442 µM (active)
- GI50 (NCI-H460): 0.379 µM (active)
- GI50 (A498): 2.32 µM (inactive)
- GI50 (Hs-578T): 0.257 µM (active)
- GI50 (MDA-N): 0.492 µM (active)
- GI50 (HOP-92): 1.43 µM (inactive)
- GI50 (TK-10): 2.12 µM (inactive)
- GI50 (SK-MEL-5): 0.241 µM (active)
- GI50 (NCI/ADR-RES): 0.668 µM (active)
- GI50 (M14): 1.08 µM (active)
- GI50 (EKVX): 1.01 µM (active)

Compound: C=CCN1CCN([C@H](c2ccc(C(=O)N(CC)CC)cc2)c2cccc(OC)c2)CC1
- GI50 (SF-539): > 25 µM (inactive)
- GI50 (786-0): > 25 µM (inactive)
- GI50 (Malme-3M): > 25 µM (inactive)
- GI50 (A549): > 25 µM (inactive)
- GI50 (HT-29): > 25 µM (inactive)
- GI50 (BT-549): > 25 µM (inactive)
- GI50 (MDA-MB-231): > 25 µM (inactive)
- GI50 (A498): > 25 µM (inactive)
- GI50 (NCI-H522): > 25 µM (inactive)
- GI50 (U-251): > 25 µM (inactive)
- GI50 (Hs-578T): > 25 µM (inactive)
- GI50 (MDA-N): > 25 µM (inactive)
- GI50 (HOP-92): 16.8 µM (inactive)
- GI50 (SK-MEL-5): > 25 µM (inactive)
- GI50 (NCI/ADR-RES): > 25 µM (inactive)
- GI50 (M14): > 25 µM (inactive)
- GI50 (EKVX): > 25 µM (inactive)

Compound: O=c1c2cccnc2n2n1Cc1ccccc1C2
- GI50 (SF-539): > 100 µM (inactive)
- GI50 (786-0): > 100 µM (inactive)
- GI50 (Malme-3M): > 100 µM (inactive)
- GI50 (A549): > 100 µM (inactive)
- GI50 (HT-29): > 100 µM (inactive)
- GI50 (BT-549): > 100 µM (inactive)
- GI50 (MDA-MB-231): > 100 µM (inactive)
- GI50 (NCI-H460): > 100 µM (inactive)
- GI50 (A498): > 100 µM (inactive)
- GI50 (NCI-H522): > 100 µM (inactive)
- GI50 (U-251): > 100 µM (inactive)
- GI50 (Hs-578T): > 100 µM (inactive)
- GI50 (MDA-N): > 100 µM (inactive)
- GI50 (HOP-92): > 100 µM (inactive)
- GI50 (TK-10): > 100 µM (inactive)
- GI50 (SK-MEL-5): > 100 µM (inactive)
- GI50 (NCI/ADR-RES): > 100 µM (inactive)
- GI50 (EKVX): 71.3 µM (inactive)

Compound: C/C(=N\NC(N)=S)c1cccs1.OB(O)c1ccccc1
- GI50 (SF-539): > 100 µM (inactive)
- GI50 (786-0): > 100 µM (inactive)
- GI50 (Malme-3M): > 100 µM (inactive)
- GI50 (A549): > 100 µM (inactive)
- GI50 (HT-29): > 100 µM (inactive)
- GI50 (BT-549): > 100 µM (inactive)
- GI50 (MDA-MB-231): > 100 µM (inactive)
- GI50 (NCI-H460): > 100 µM (inactive)
- GI50 (A498): > 100 µM (inactive)
- GI50 (NCI-H522): 70.6 µM (inactive)
- GI50 (U-251): > 100 µM (inactive)
- GI50 (Hs-578T): > 100 µM (inactive)
- GI50 (MDA-N): > 100 µM (inactive)
- GI50 (HOP-92): > 100 µM (inactive)
- GI50 (TK-10): > 100 µM (inactive)
- GI50 (SK-MEL-5): > 100 µM (inactive)
- GI50 (NCI/ADR-RES): > 100 µM (inactive)
- GI50 (M14): > 100 µM (inactive)

Compound: Oc1cc(Br)cc2cc(Br)cnc12
- GI50 (SF-539): 3.78 µM (inactive)
- GI50 (786-0): 13.8 µM (inactive)
- GI50 (Malme-3M): 2.4 µM (inactive)
- GI50 (A549): 3.29 µM (inactive)
- GI50 (HT-29): 27.5 µM (inactive)
- GI50 (BT-549): 4.58 µM (inactive)
- GI50 (MDA-MB-231): 12.2 µM (inactive)
- GI50 (NCI-H460): 1.3 µM (inactive)
- GI50 (A498): 3.4 µM (inactive)
- GI50 (NCI-H522): 2.3 µM (inactive)
- GI50 (Hs-578T): 3.24 µM (inactive)
- GI50 (MDA-N): 5.37 µM (inactive)
- GI50 (HOP-92): 13.7 µM (inactive)
- GI50 (TK-10): 43 µM (inactive)
- GI50 (SK-MEL-5): 2.48 µM (inactive)
- GI50 (NCI/ADR-RES): 2.72 µM (inactive)
- GI50 (M14): 2.4 µM (inactive)
- GI50 (EKVX): 3.85 µM (inactive)
